# Measurements: PMC3919815, “Anti-Tumor Effects of Novel 5-O-Acyl Plumbagins Based on the Inhibition of Mammalian DNA Replicative Polymerase Activity” (PLoS ONE, 2014)
# Experiments:
# HCT116 (colon cancer) = experiment: Cancer cell viability, MTT assay; format: cell-based, human; settings: 48 h, MTT; for suppression of cell proliferation: Fig. 5
# Procedure: The following human cancer cell lines were obtained from the American Type Culture Collection (Manassas, VA, USA): lung (A549), prostate (DU145 and PC3), colon (HCT116 and HT-29), cervix (HeLa), hepatocellular liver (HepG2), breast (MCF-7), and pancreatic cancer (PANC-1). These cells were cultured in RPMI 1640 medium supplemented with 10% fetal bovine serum, penicillin (100 units/mL), streptomycin (100 µg/mL), and 1.6 mg/mL NaHCO3 at 37°C in a humid atmosphere of 5% CO2/95% air. For the cell viability assay, cells were seeded at 1×10^3 cells/well in a 96-well microplate with various concentrations of the test compounds, and incubated for 48 h. MTT (3-(4,5-dimethylthiazol-2-yl)-2,5-diphenyl tetrazolium bromide) solution was added to a final concentration 0.6 mg/mL in Milli-Q purified water for 2 h, after which time the medium was discarded and the cells lysed in DMSO. A540 was then measured in a microplate reader (Model 680, Bio-Rad Laboratories, Hercules, CA, USA).
# HT-29 solid tumors = experiment: In vivo anti-tumor assay; set-up: species or system nude mice; settings: at 40 days; 5 mg/kg subcutaneously in PBS, versus PBS control; n = 6
# From the text: Male BALB/c nu/nu mice at 5 week of age (18 g) were purchased from Japan SLC, Inc. (Shizuoka, Japan). Mice receiving standard laboratory chow and water ad libitum were acclimatized for 1 week before inoculation with cancer cells. For in vivo experiments, human colon HT-29 cells (1×10^7 cells/mouse) were subcutaneously injected into nude mice. Mice bearing solid tumors that had grown to approximately 100 mm^3 in volume (tumor volume = length×width×height) at 12 days after implantation were used for the assessment of anti-tumor effects. They were divided randomly into five groups (n = 6/group). One of the five groups was a control group injected with 0.1 mL of phosphate buffered saline (PBS) alone, and other groups were injected with vitamin K3 (3), juglone (4), C18:1-acyl juglone (5f), and C18:1-acyl plumbagin (2f) dissolved in PBS at a dose of 5 mg/kg. The above administrations all took place between days 12–39 subsequent to implantation. All mice were injected subcutaneously 14 times at […] with the compound and PBS alone (control). Tumor growth was measured at 1-day intervals for 40 days after implantation. At the end of the in vivo anti-tumor assay, some mice treated with the test compounds and PBS were independently examined to observe major organs such as lung, heart, spleen, stomach, liver, pancreas, kidney, intestine, and brain.
# Human pol λ = target: T1, Human pol λ (Homo sapiens, UniProt Q9UGP5); experiment: DNA polymerase activity inhibition; format: biochemical; settings: 10 µM compound; Fig. 4
# T1 construct: His tag; made in house
# T1 sequence (Q9UGP5 1-575): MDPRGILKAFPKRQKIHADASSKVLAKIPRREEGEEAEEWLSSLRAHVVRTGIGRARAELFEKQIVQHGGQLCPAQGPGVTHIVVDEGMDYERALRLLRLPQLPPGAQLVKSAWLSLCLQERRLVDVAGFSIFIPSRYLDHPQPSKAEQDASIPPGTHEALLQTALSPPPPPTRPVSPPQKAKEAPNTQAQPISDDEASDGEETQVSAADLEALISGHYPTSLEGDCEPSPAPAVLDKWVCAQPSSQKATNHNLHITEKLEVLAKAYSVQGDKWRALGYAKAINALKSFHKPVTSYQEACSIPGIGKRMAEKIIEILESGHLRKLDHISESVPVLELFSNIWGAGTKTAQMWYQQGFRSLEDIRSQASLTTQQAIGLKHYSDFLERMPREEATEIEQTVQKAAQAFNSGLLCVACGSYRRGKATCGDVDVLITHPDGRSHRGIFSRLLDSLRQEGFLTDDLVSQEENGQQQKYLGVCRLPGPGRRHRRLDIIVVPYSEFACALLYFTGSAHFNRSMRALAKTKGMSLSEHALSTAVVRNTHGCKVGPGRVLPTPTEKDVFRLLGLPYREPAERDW
# From the text: (§1) Pol α was purified from calf thymus by immunoaffinity column chromatography as described by Tamai et al.. Recombinant rat pol β was purified from Escherichia coli JMpβ5 as described by Date et al.. The human pol γ catalytic gene was cloned into pFastBac. Histidine-tagged enzyme was expressed using the BACTO-BAC HT Baculovirus Expression System according to the manufacturer's instructions (Life Technologies, Frederick, MD, USA) and purified using ProBound resin (Invitrogen Japan, Tokyo Japan). Human pols δ and ε were purified by nuclear fractionation of human peripheral blood cancer cells (Molt-4) using the second subunit of pol δ and ε-conjugated affinity column chromatography, respectively. A truncated form of human pol η (residues 1–511) tagged with His6 at its C-terminal was expressed in E. coli cells and purified as described by Kusumoto et al.. A recombinant mouse pol ι tagged with His6 at its C-terminal was expressed and purified by Ni–NTA column chromatography. A truncated form of pol κ (residues 1–560) with 6× His-tags attached at the C-terminus was overexpressed in E. coli and purified as described by Ohashi et al.. Recombinant human His-pol λ was overexpressed and purified according to a method described by Shimazaki et al.. Recombinant human His-pol μ was overexpressed in E. coli BL21 and purified using Glutathione Sepharose 4B (GE Healthcare Bio-Science Corp., Piscataway, NJ, USA) column chromatography according to the method for pol λ preparation by Shimazaki et al.. Pol α from a higher plant, cauliflower, was purified from the inflorescence structure according to the methods outlined by Sakaguchi et al.. Recombinant rice (Oryza sativa L. cv. Nipponbare) pol λ tagged with His6 at the C-terminus was expressed in E. coli and purified as described by Uchiyama et al.. Calf TdT, Taq pol, T4 pol, T7 RNA polymerase, and T4 polynucleotide kinase were purchased from Takara Bio Inc. (Kyoto, Japan). The Klenow fragment of pol I from E. coli was purchased from Worthington Biochemical Corp. (Freehold, NJ, USA). Bovine pancreas deoxyribonuclease I was obtained from Stratagene Cloning Systems (La Jolla, CA, USA).
# (§2) The reaction mixtures for calf pol α, rat pol β, plant pol α, and prokaryotic pols have been described previously, [35]; those for pol γ as well as pols δ and ε were previously described by Umeda et al. and Ogawa et al., respectively. Those for pols η, ι, and κ were the same as for pol α, and those for pols λ and μ were the same as for pol β. For the pol reactions, poly(dA)/oligo(dT)18 (A/T, 2/1) and dTTP were used as the DNA template-primer substrate and nucleotide (dNTP; 2′-deoxynucleoside-5′-triphosphate) substrate, respectively. For the TdT reactions, oligo(dT)18 (3′-OH) and dTTP were used as the DNA primer substrate and nucleotide substrate, respectively.
# (§3) The chemically synthesized 5-O-acyl plumbagins (2a–j) were dissolved in distilled dimethyl sulfoxide (DMSO) to various concentrations and sonicated for 30 s. Subsequently, 4 µL aliquots were mixed with 16 µL of each enzyme (0.05 units) in 50 mM Tris-HCl at pH 7.5, containing 1 mM dithiothreitol, 50% glycerol (by vol), and 0.1 mM ethylenediaminetetraacetic acid and held at 0°C for 10 min. These inhibitor-enzyme mixtures in 8 µL volumes were next added to 16 µL of enzyme standard reaction mixture and incubated at 37°C for 60 min, except for Taq pol, which was incubated at 74°C for 60 min. Activity without inhibitor was considered 100%, and the relative activity was determined for each inhibitor concentration. One unit of pol activity was defined as the amount of each enzyme that catalyzed the incorporation of 1 nmol dTTP into synthetic DNA template primers in 60 min, at 37°C, and under standard reaction conditions, [35].
# Human pol κ = target: T2, Human pol κ (Homo sapiens, UniProt Q9UBT6); experiment: DNA polymerase activity inhibition; format: biochemical; settings: 10 µM compound; Fig. 4
# T2 construct: A truncated form of pol κ (residues 1–560) with 6× His-tags attached at the C-terminus; 6× His (C); made in house; host or cells: E. coli
# T2 sequence (Q9UBT6 1-560): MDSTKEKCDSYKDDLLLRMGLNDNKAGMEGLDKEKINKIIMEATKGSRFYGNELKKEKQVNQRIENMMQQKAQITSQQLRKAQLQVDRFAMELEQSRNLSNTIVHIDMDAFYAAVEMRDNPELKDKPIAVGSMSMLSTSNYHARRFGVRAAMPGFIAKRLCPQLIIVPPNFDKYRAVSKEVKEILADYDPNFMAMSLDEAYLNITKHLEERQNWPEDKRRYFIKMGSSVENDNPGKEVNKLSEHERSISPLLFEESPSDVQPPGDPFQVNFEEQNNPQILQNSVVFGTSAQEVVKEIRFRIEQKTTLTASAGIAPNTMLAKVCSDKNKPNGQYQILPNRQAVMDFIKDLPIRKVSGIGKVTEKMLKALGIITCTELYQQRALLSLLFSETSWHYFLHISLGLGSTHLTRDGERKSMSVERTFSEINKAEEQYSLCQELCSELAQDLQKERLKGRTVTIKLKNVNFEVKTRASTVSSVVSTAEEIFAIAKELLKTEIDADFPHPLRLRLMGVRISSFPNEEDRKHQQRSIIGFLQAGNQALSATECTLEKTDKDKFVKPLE
# From the text: as §1, §2, §3
# pol ε = test system: pol ε; set-up: method as in PMID 10942777; settings: cited from earlier work
# pol α = test system: pol α; set-up: method as in PMID 10942777; settings: cited from earlier work
# pol δ = test system: pol δ; set-up: method as in PMID 10942777; settings: cited from earlier work
# calf thymus dsDNA = experiment: Thermal transition of dsDNA; format: binding; settings: 15 µM compound (positive control); 6 µg/mL DNA, 0.1 M Na-phosphate buffer pH 7.0
# Procedure: Thermal transition profiles of dsDNA to single-stranded DNA with or without test compound were obtained with a spectrophotometer (UV-2500; Shimadzu Corp., Kyoto, Japan) equipped with a thermoelectric cell holder according to previous methods. Calf thymus DNA (6 µg/mL) was dissolved in 0.1 M sodium phosphate buffer (pH 7.0) containing 1% DMSO. The solution temperature was equilibrated to 75°C for 10 min, and then increased by 1°C at 2-min intervals for each measurement point. Any change in the absorbance (260 nm) of the compound itself at each temperature point was automatically subtracted from that of DNA plus the compound in the spectrophotometer.
# Calf pol α = target: T3, Calf pol α (Bos taurus, UniProt A0AAA9TD94); experiment: DNA polymerase activity inhibition; format: biochemical; settings: 10 µM compound; Fig. 4
# T3 construct: from tissue; host or cells: calf thymus
# From the text: as §1, §2, §3
# [1] = Stability under basic conditions (Triton B, UV-vis); format: physicochemical; settings: 1 equivalent Triton B in 1,4-dioxane and MeOH, 1.1×10^−3 M, 25°C
# Procedure: A 2.2×10^−2 M solution of Triton B in MeOH was added to a 2.2×10^−2 M solution of each sample in 1,4-dioxane. Then, the mixture was diluted with 1,4-dioxane to a concentration of 1.1×10^−3 M. Then, the stability of each compound was monitored by UV-vis spectroscopy. UV-vis spectra were measured at 25°C on a UV-vis spectrophotometer (JASCO V-650, Tokyo, Japan). For comparison, UV-vis spectra of 1.1×10^−3 M solution of C18:1-acyl plumbagin (2f), and C18:1-acyl juglone (5f) in 1,4-dioxane and MeOH (19/1, v/v) were measured.
# T3 sequence (A0AAA9TD94 1-1441): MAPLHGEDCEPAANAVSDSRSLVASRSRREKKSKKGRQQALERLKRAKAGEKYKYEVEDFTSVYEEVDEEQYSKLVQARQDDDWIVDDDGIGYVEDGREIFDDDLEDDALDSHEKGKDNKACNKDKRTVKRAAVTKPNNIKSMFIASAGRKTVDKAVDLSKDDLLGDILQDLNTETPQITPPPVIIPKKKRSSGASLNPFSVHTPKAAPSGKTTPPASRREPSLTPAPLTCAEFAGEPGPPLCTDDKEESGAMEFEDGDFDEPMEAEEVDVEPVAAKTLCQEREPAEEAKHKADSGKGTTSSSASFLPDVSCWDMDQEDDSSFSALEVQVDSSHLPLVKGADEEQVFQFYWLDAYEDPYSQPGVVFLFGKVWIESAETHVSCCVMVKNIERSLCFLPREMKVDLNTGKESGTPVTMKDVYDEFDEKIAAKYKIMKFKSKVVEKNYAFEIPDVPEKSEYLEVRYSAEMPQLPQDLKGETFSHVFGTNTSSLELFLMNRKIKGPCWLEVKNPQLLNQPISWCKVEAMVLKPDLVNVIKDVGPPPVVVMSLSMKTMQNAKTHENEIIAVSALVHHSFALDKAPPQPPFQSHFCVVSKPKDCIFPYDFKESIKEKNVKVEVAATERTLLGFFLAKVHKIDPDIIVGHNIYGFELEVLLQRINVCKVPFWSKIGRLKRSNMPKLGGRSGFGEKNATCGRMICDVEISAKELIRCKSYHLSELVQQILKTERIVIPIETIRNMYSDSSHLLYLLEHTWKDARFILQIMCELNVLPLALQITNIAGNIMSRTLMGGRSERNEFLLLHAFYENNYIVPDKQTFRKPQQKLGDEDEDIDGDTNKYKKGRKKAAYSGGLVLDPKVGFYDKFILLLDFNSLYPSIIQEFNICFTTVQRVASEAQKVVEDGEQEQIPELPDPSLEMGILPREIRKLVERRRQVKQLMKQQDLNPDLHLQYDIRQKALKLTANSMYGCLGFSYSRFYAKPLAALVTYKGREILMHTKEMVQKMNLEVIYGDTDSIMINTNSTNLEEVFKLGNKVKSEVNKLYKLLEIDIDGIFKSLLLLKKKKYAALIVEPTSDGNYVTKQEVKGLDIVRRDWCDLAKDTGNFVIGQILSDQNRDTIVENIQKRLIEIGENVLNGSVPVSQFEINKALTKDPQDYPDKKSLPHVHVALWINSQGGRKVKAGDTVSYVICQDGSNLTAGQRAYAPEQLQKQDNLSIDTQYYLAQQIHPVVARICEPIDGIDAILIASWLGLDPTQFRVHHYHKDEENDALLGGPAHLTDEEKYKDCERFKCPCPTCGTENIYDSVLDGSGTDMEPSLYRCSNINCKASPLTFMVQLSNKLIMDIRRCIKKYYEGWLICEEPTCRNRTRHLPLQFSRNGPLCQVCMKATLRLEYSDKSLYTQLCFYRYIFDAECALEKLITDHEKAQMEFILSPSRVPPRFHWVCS
compound,measurement,setting,value
"CCCCC/C=C\C/C=C\CCCCCCCC(=O)Oc1cccc2c1C(=O)C=C(C)C2=O [2g, 5-O-linoleoyloxy-2-methyl-1,4-naphthoquinone]",cell proliferation rate,"HCT116 (colon cancer); 10 µM, control = 100%",< 60%
"CC1=CC(=O)c2ccccc2C1=O [compound 3, 2-methyl-1,4-naphthoquinone]",decreased rates of tumor volume,HT-29 solid tumors,7.0%
"CC(=O)Oc1cccc2c1C(=O)C=C(C)C2=O [2a, 5-O-acetoxy-2-methyl-1,4-naphthoquinone]",inhibition of pol λ relative activity (in words),Human pol λ,hardly inhibited
same,inhibition of pol κ relative activity (in words),Human pol κ,hardly inhibited
same,melting point,,118 to 124 °C
C[C@@]1(CO)[C@H](O)CC[C@@]2(C)[C@H]1CC[C@H]1C[C@@H]3C[C@@]12CC[C@]3(O)CO [aphidicolin],IC50,pol ε,16 µM
same,IC50,pol α,20 µM
same,IC50,pol δ,13 µM
"CC/C=C\C/C=C\C/C=C\C/C=C\C/C=C\C/C=C\CCC(=O)Oc1cccc2c1C(=O)C=C(C)C2=O [2j, 5-O-docosahexaenoyloxy-2-methyl-1,4-naphthoquinone]",inhibition of pol λ relative activity (in words),Human pol λ,strongest inhibitor
same,inhibition of pol κ relative activity (in words),Human pol κ,strongest inhibitor
"CC1=CC(=O)c2c(O)cccc2C1=O [compound 1, 5-hydroxy-2-methyl-1,4-naphthoquinone, reference compound]",suppression of cell proliferation,HCT116 (colon cancer); 10 µM,did not
same,suppression of cell proliferation,HCT116 (colon cancer); 100 µM,approximately 50%
"O=C1C=CC(=O)c2c(O)cccc21 [compound 4, 5-hydroxy-1,4-naphthoquinone]",decreased rates of tumor volume,HT-29 solid tumors,9.2%
"CC[n+]1c(-c2ccccc2)c2cc(N)ccc2c2ccc(N)cc21 [EtBr, ethidium bromide]",thermal transition (Tm) of dsDNA from 75 to 90°C,calf thymus dsDNA,an obvious thermal transition was observed
"CCCCCCCCCCCCCCCCCC(=O)Oc1cccc2c1C(=O)C=C(C)C2=O [2e, 5-O-octadecanoyloxy-2-methyl-1,4-naphthoquinone]",inhibition of pol α relative activity (in words),Calf pol α,did not inhibit
same,melting point,,67 to 70 °C
"CCCCCCCC/C=C\CCCCCCCC(=O)Oc1cccc2c1C(=O)C=CC2=O [5f, reference compound]",stability under basic conditions (UV spectra),[1],readily decomposes under basic conditions
same,decreased rates of tumor volume,HT-29 solid tumors,10.3%
